# Measured values published in article PMC12508063, “Chloroindazole based estrogen receptor β ligands with favorable pharmacokinetics promote functional remyelination and visual recovery” (Scientific Reports, 2025).
# Values joined by “and” are separate entries in the source; they are usually repeats but may differ in a detail not shown here. Equal entries are not always repeated. Where two headings read alike, the source gives them in different places.
# Experiments:
# EAE mice = assay: EAE clinical disease score; type: in vivo, C57BL/6J mouse; settings: 5 mg/kg/day SC from peak disease
# Method: EAE induction and treatment: EAE was induced in 8–10-week-old wild-type C57BL/6J mice using MOG₃₅-₅₅ peptide[11],[14],[23]–[25]. Mice were scored daily using a standard clinical scale (0–5) and tested for their ability to stay on a rotarod. […] At peak disease (18–22 days post-immunization), animals were grouped into EAE+Vehicle, EAE+K102, and EAE+K110.
# Fig. 3 Experimental design for treatment effects in EAE. (A) Experimental plan. […] Following emulsion injection, mice were injected with pertussis (PTX). Mice were scored for their clinical EAE score daily. EAE mice (red) show signs of disease starting at days 8–17. At peak disease between the days […], therapeutic treatment started and continued daily until the end of the experiment (D35-45). […] N = 6–8 mice/group. Two-Way unbalanced ANOVA with Dunnett’s multiple comparisons test was performed. […]
# EAE induction and treatment: Eight to ten-week-old wild-type C57BL/6J mice were induced with active EAE using MOG35-55 peptide as previously described (1-5). […] Animals were scored daily for clinical EAE scores as follows: 0, unaffected; 1, complete tail limpness; 2, failure to right upon attempt to roll over; 3, partial hind limb paralysis; 4, complete hind limb paralysis; […]. At peak disease 18-22 dpi, mice were scored and separated into 3 groups: EAE+V, EAE+SHK-K102, and EAE+K110. […]
# EAE mice optic tract = assay: Optic tract IHC in EAE; type: in vivo, mouse
# Excerpt: (§1) Animal Perfusions, tissue preparation, and IHC: Mice were deeply anesthetized and euthanized with isoflurane and intracardially perfused with ice‐cold PBS followed by 10% formalin in PBS (Fisher Scientific, Hampton, NH). Eyes, optic nerves, and brain were collected and processed for IHC as previously described[23],[28]. Antibody details are listed in Supplementary Table S6.
# Imaging and Quantification: Retina, optic nerve, and brain sections were imaged using an Olympus BX61 spinning disk confocal microscope with 10× and 40× objectives[23],[28]. Z-stack images were captured and processed using Slidebook 6 and cellSense software. Immunofluorescence intensity and cell counts were quantified using NIH ImageJ, and statistical analysis was performed with GraphPad Prism.
# Treatment with K102 alleviated EAE-induced demyelination relative to vehicle-treated mice.
# as §1, with “Perfusions,” for “Animal Perfusions,”, “anesthetized” for “anesthetized and euthanized”, “described(8, 9).” for “described[23],[28].”
# Imaging and Quantification: Retina, optic nerve, and brain sections were imaged using an Olympus BX61 spinning disk confocal microscope equipped with 10x and 40x Super Apochromat objectives (Olympus America Inc., Cypress, CA) connected to a camera (Hamamatsu Orca‐R2). Z‐stack images were acquired, and projection images were compiled using Slidebook 6 and cellSense software (Intelligent Imaging Innovations Inc, Santa Monica, CA). Immunofluorescence intensity and cell numbers were assessed with NIH ImageJ software (v1. 50i http://rsb.info.nih.gov/ij/) and quantified. Results from all counts were analyzed in GraphPad Prism for statistical significance.
# CYP2C19 = CYP2C19 (Homo sapiens, UniProt P33261); assay: CYP inhibition; settings: test compounds at 10 μM; substrate Mephenytoin
# Chain of CYP2C19 (P33261 whole entry): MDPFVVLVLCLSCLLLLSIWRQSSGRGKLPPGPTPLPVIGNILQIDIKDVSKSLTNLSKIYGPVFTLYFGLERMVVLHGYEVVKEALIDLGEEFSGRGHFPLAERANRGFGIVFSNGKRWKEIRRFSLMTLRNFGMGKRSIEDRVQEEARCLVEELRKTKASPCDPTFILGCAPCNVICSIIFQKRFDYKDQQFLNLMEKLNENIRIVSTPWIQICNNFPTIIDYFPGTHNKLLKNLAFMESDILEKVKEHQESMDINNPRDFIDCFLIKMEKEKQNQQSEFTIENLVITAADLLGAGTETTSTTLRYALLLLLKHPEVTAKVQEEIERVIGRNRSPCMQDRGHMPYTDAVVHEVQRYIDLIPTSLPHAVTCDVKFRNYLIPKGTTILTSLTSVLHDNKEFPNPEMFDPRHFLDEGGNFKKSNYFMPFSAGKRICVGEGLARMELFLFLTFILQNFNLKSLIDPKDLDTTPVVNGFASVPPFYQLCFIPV
# [1] = Hepatocyte stability (mouse)
# [2] = Plasma protein binding (human)
# [3] = Pharmacokinetics and brain/plasma distribution in CD1 mice (IV, SC, PO); settings: CD1 mouse
# Method: (§2) Mice were dosed intravenously at 5 mg/kg, subcutaneously at 10 mg/kg, and orally at 25 mg/kg.
# (§3) Only values above the LLOQ.(0.3 ng/mL) were plotted.
# [4] = tested on: 1A2, 2B6, 2C9, 2C19, 2D6, and 3A4M/T; assay: CYP inhibition panel summary; type: in vitro ADME, human; settings: 10 µM
# [5] = hepatocytes
# [6] = mouse, in vivo
# Method: as §2, §3
smiles,measurement,setting,value
"Cc1cc(O)ccc1-n1nc2ccc(O)cc2c1Cl [Compound K102, IndCl-o-Me]",EAE clinical disease,EAE mice,superior attenuation
same,"GFAP, mean value",EAE mice optic tract,significantly reduced
same,"Iba1, mean value",EAE mice optic tract,significantly reduced
same,"MBP, mean value",EAE mice optic tract,alleviated
same,"NFM, mean value",EAE mice optic tract,significantly increased
same,"SARM1, mean value",EAE mice optic tract,did not produce a significant change
same,"GFAP, mean value",EAE mice optic tract; listed as 102,14.14
same,"Iba1, mean value",EAE mice optic tract; listed as 102,9.623
same,"MBP, mean value",EAE mice optic tract; listed as 102,27.62
same,"NFM, mean value",EAE mice optic tract; listed as 102,18.64
same,"SARM1, mean value",EAE mice optic tract; listed as 102,11.45
same,CYP Inhibition Percentage CYP2C19,CYP2C19,50.50%
same,Hepatocyte Stability (Mouse) CLint,[1],86.57 µL/min/mg protein
same,Hepatocyte Stability (Mouse) t1/2,"[1]; mouse, hepatocytes",16.01 min
same,Protein Binding (% Bound) Human,[2],97.08%
same,Kp AUC0-t (brain/plasma),[3]; IV 5 mg/kg,0.43
same,Kp AUClast (brain/plasma),[3]; IV 5 mg/kg,0.41
same,Ratio of Cmax (brain/plasma),[3]; IV 5 mg/kg,0.54
same,Vss_obs,[3]; IV 5 mg/kg,5.74 L/kg
same,AUC0-t,"[3]; IV 5 mg/kg, brain",211 ng·h/g
same,T1/2,"[3]; IV 5 mg/kg, brain",52.2 min
same,Tmax,"[3]; IV 5 mg/kg, brain",6 min
same,AUC0-t,"[3]; IV 5 mg/kg, plasma",491 ng·h/mL
same,C0 or max,"[3]; IV 5 mg/kg, plasma",3256 ng/mL
same,Cl_obs,"[3]; IV 5 mg/kg, plasma",169 mL/min/kg
same,T1/2,"[3]; IV 5 mg/kg, plasma",55.2 min
same,Kp AUC0-t (brain/plasma),[3]; PO 25 mg/kg,0.40
same,Ratio of Cmax (brain/plasma),[3]; PO 25 mg/kg,0.59
same,AUC0-t,"[3]; PO 25 mg/kg, brain",391 ng·h/g
same,Cmax,"[3]; PO 25 mg/kg, brain",279 ng/g
same,Tmax,"[3]; PO 25 mg/kg, brain",15 min
same,T1/2 (brain retention),"[3]; PO 25 mg/kg, brain, 25 mg/kg",288 min and 287 min
same,AUC0-t,"[3]; PO 25 mg/kg, plasma",991 ng·h/mL
same,Cmax,"[3]; PO 25 mg/kg, plasma",471 ng/mL
same,T1/2,"[3]; PO 25 mg/kg, plasma",611.4 min
same,Tmax,"[3]; PO 25 mg/kg, plasma",4.98 min
same,F (Bioavailability),"[3]; PO 25 mg/kg, plasma, 25 mg/kg",40% and 40.4%
same,AUCinf plasma,[3]; PO 25 mpk,991 ng·h/mL
same,Brain/Plasma Ratio(%),[3]; PO 25 mpk,40%
same,Kp AUC0-t (brain/plasma),[3]; SC 10 mg/kg,0.35
same,Kp AUClast (brain/plasma),[3]; SC 10 mg/kg,0.35
same,Ratio of Cmax (brain/plasma),[3]; SC 10 mg/kg,0.24
same,AUC0-t,"[3]; SC 10 mg/kg, brain",477 ng·h/g
same,Cmax,"[3]; SC 10 mg/kg, brain",218 ng/g
same,Tmax,"[3]; SC 10 mg/kg, brain",30 min
same,T1/2 (brain retention),"[3]; SC 10 mg/kg, brain, 10 mg/kg",120 min
same,T1/2 (brain retention),"[3]; SC 10 mg/kg, brain, listed as IndCl-o-Me, 10 mg/kg",118 min
same,AUC0-t,"[3]; SC 10 mg/kg, plasma",1385 ng·h/mL
same,Cmax,"[3]; SC 10 mg/kg, plasma",919 ng/mL
same,T1/2,"[3]; SC 10 mg/kg, plasma",134 min
same,Tmax,"[3]; SC 10 mg/kg, plasma",4.98 min
same,AUCinf brain,[3]; SC 10 mpk,480 ng·h/g
same,AUCinf plasma,[3]; SC 10 mpk,1390 ng·h/mL
same,Brain/Plasma Ratio(%),[3]; SC 10 mpk,35%
"Oc1ccc(-n2nc3ccc(O)cc3c2Cl)c(O)c1 [Compound K110, IndCl-o-OH]","CYP inhibition, all other isoforms of the panel",[4],< 50%
same,Hepatocyte Stability (Human) CLint,[5],12.69 µL/min/mg protein
same,Hepatocyte Stability (Human) % Remaining (15 min),[5]; 0.25 h,87.14%
same,Cl_obs,"[6]; iv, 5 mg/kg",158 mL/min/kg
same,Kp AUC0-t (brain/plasma),"[6]; iv, 5 mg/kg",0.37
same,Kp AUClast (brain/plasma),"[6]; iv, 5 mg/kg",0.37
same,Vss_obs,"[6]; iv, 5 mg/kg",2.23 L/kg
same,AUCinf brain,"[6]; po, 25 mg/kg",354 ng·h/g
same,AUCinf plasma,"[6]; po, 25 mg/kg",780 ng·h/mL
same,Brain/Plasma Ratio(%),"[6]; po, 25 mg/kg",46%
same,Kp AUC0-t (brain/plasma),"[6]; po, 25 mg/kg",0.46
same,Kp AUClast (brain/plasma),"[6]; po, 25 mg/kg",0.41
same,AUCinf brain,"[6]; sc, 10 mg/kg",303 ng·h/g
same,AUCinf plasma,"[6]; sc, 10 mg/kg",1403 ng·h/mL
same,Brain/Plasma Ratio(%),"[6]; sc, 10 mg/kg",22%
same,F (Bioavailability),"[6]; sc, 10 mg/kg",133%
same,Kp AUC0-t (brain/plasma),"[6]; sc, 10 mg/kg",0.22
same,Kp AUClast (brain/plasma),"[6]; sc, 10 mg/kg",0.20
